This is an account of results in patent US11352358B2, “FXR agonist” (XUANZHU BIOPHARMACEUTICAL CO., LTD., priority 2017, dated 2022).

Series [1] is described as follows: Liver microsome metabolism stability, rat liver microsome. Type of series: in vitro ADME, SD rat. To be noted: 0.5 mg protein/mL, test sample 1 μM, β-NADPH. The procedure:
(§1) Test samples: the homemade compounds 1, 2, 4 and 5 of the present invention (for their chemical names and preparation methods, see the preparation example for each compound).
(§2) a mixed liver microsomes of SD rat and human both purchased from XenoTech, with batch Nos.: 1410271 (SD rat) and 1410013 (human) respectively, wherein the microsomal protein concentrations both were 20 mg mL^−1;
(§3) experimental promoter β-NADPH purchased from Roche (batch No.: 524F0231); and a phosphate buffer solution (pH 7.4) made in the lab.
(§4) An appropriate amount of the test sample powder was weighed accurately, and dissolved in an appropriate amount of dimethyl sulfoxide (DMSO) to a concentration of 1 mM; and the solution was then diluted by 20 times with methanol to yield a 50 μM working solution.
(§5) (1) According to the proportions in table 3 “Composition of the incubation system for liver microsome metabolism stability experiment” above, for each compound, 6 mL of PBS (100 mM), 0.6 mL of MgCl2 solution (20 mM) and 3.66 mL of H2O were made into a mixed solution 1 for the incubation system (not containing the microsomes, the test sample and β-NADPH).
(§6) (2) Liver microsomes (20 mg protein/mL) were taken from a refrigerator (−80° C.), and were placed on a thermostatic water bath oscillator (37° C.) and pre-incubated for 3 mins.
(§7) (3) For each compound, 1.88 mL of the mixed solution 1 for the incubation system was added with 55 μL of microsomes to obtain a mixed solution 2 for the incubation system (not containing the test sample and β-NADPH).
(§8) (4) Sample group (containing the microsomes and D-NADPH): 616 μL of mixed solution 2 for the incubation system was added with 14 μL of the test sample working solution (with a concentration of 50 μM), and with 70 μL of R-NADPH working solution (10 mM). The resulted solution was well mixed, and the resulted solution was then duplicated. The time points of sampling were at 0 min, 5th min, 10th min, 20th min, 30th min and 60th min.
(§9) (5) Control group (containing the microsomes, and water instead of D-NADPH): 264 μL of mixed solution 2 for the incubation system was added with 6 μL of the test sample working solution (50 μM), and with 30 μL of water. The resulted solution was well mixed, and the resulted solution was then duplicated. The time points of sampling were at 0 min and 60th min.
(§10) (6) 50 μL of sample was taken from an incubating sample tube at each predetermined time point, added to a terminating sample tube (containing 300 μL of cold terminator), and vortexed; and the reaction was terminated.
(§11) (7) after 10 mins of vortexing, the solution was centrifuged for 5 mins (12,000 rpm).
(§12) (8) 100 μL of supernatant was taken and added with 100 μL of water, and the mixture solution was thoroughly vortexed; and the solution was then analyzed by LC-MS/MS.
(§13) Percentages of residual contents were calculated according to the following formula.

A short description of series [2]: Liver microsome metabolism stability, human liver microsome. The class given is in vitro ADME. To be noted: 0.5 mg protein/mL, test sample 1 μM, β-NADPH. On the procedure: as §1, §2, §3, §4, §5, §6, §7, §8, §9, §10, §11, §12, §13
For the next series, the system named is BSEP mRNA in HepG2 cells. The series can be described thus: Relative expression of BSEP mRNA in HepG2 cells (qPCR), Experimental Example 1. The class given is cell-based, human. To be noted: 24 hrs, expression under 3 μM of PX-104 as 100%. On the procedure:
compounds of the present invention (for their chemical names and preparation methods, see the preparation example of each compound); compound PX-104 and compound 30-70 (for their structures, see the background of the invention, and for their preparation methods, see patent applications WO2011020615A1 and WO2012087519A1).
Cells were digested with pancreatin and collected, and the concentration of the cells was determined; according to the counting result, the cells were resuspended to a density of 7.5×10^5 cells/mL; 2 mL of the cell suspension was inoculated in each well of a 6-well cell culture plate; and the culture plate was placed in an incubator and cultured under the conditions of 37° C. and 5% CO2 for 24 hrs.
The to-be-tested compounds were diluted to 0.3 mM and 3 mM with DMSO; and 5 μL of each stock solution diluted in the previous step was added to 5 mL of medium individually. The concentrations of the obtained working solutions were 0.3 μM and 3 μM respectively. In the control group, medium was prepared by using equivoluminal DMSO instead of the stock solutions; the cell culture plate was taken out from the incubator; the medium was removed from the cell culture plate, and the working solutions and the control medium were added correspondingly; and the culture plate was then put back into the incubator and cultured under the conditions of 37° C. and 5% CO2 for 24 hrs.
after treatment for 24 hrs, the cell culture plate was taken out, and the medium was removed from the plate; the cells were rinsed three times with pre-cooled (4° C.) PBS; and 200 μL of pancreatin (preheated to 37° C.) was added to each well, and the plate was then gently shaken such that the pancreatin could evenly cover the plate bottom. The culture plate was then placed back into the incubator and incubated until the cells were separated from the plate bottom. 1 mL of medium was added to terminate digestion. The solution was gently pipetted and blown for several times with a pipettor, all the substances in each well were pipetted into a 1.5 mL Rnase-free centrifuge tube and centrifuged at 200×g for 5 mins; supernatants were removed to collect cell samples.
Cell lysis: Fresh RNA lysis buffer was prepared (wherein 10 μL of 2-mercaptoethanol was added to 1 mL of lysis buffer); 600 μL of lysis buffer was added to each cell sample; the cells were lysed completely by 1 to 2 mins of vigorous vortexing; the cell lysates were centrifuged at 12,000×g for 5 mins; and the supernatants were transferred to 1.5 mL Rnase-free centrifuge tubes.
Extraction and purification of RNA: An equal amount of 70% ethanol was added to each cell lysate; the centrifuge tubes were then shaken vigorously, and the buffer was mixed sufficiently, so that the particulate precipitates that might be formed after the addition of ethanol were dispersed as even as possible; and adsorption columns were put into collecting tubes, and the mixtures were transferred to the adsorption columns. 700 μL was transferred at most each time; and the solutions were centrifuged at 12,000×g under room temperature for 15 secs. The solutions in the collecting tubes were discarded, and the adsorption columns were put into the collecting tubes once again; and all the remaining mixtures were then transferred into the adsorption columns. 700 μL of eluent I was added to the adsorption column; and the solutions were centrifuged at 12,000×g under room temperature for 15 secs. The adsorption columns were put into new collecting tubes; 500 μL of eluent II was added to the adsorption column; and the solutions were centrifuged at 12,000×g under room temperature for 15 secs. […]

`O=C(O)c1ccc2nc(N3C[C@H]4C[C@@H]3C[C@@H]4OCc3c(-c4c(Cl)cccc4Cl)noc3C3CC3)sc2c1` (racemic) [Compound 2, 2-((1RS, 4RS, 5SR)-5-((5-cyclopropyl-3-(2,6-dichlorophenyl)isoxazol-4-yl)methoxy)-2-azabicyclo[2.2.1]heptan-2-yl)benzo[d]thiazole-6-carboxylic acid]: the entries for the “Residual content (%) after 60 minutes of incubation” value (“Residual content (%)” for short) in series [1] and in series [2] were 94% and 55%, respectively. In addition, the “relative expression of BSEP mRNA in HepG2 cells” value (shortened to “relative expression of BSEP mRNA”) with BSEP mRNA in HepG2 cells (Table 1, 0.3 μM) stood at 145%; with BSEP mRNA in HepG2 cells (Table 1, 3 μM), 179%.

For the compound `COc1cc(C(=O)O)cc2sc(N3C[C@H]4C[C@@H]3C[C@@H]4OCc3c(-c4c(Cl)cccc4Cl)noc3C3CC3)nc12` (racemic) [Compound 1, 2-((RS, 4RS, 5SR)-5-((5-cyclopropyl-3-(2,6-dichlorophenyl)isoxazol-4-yl)methoxy)-2-azabicyclo[2.2.1]heptan-2-yl)-4-methoxybenzo[d]thiazole-6-carboxylic acid], the “Residual content (%)” value came out at 53% in series [1] and 49% in series [2]. Further, the “relative expression of BSEP mRNA” value came to 121% in the series on BSEP mRNA in HepG2 cells (Table 2, 0.3 μM) and 102% in the series with BSEP mRNA in HepG2 cells (Table 2, 3 μM).

`Cc1cc(C(=O)O)cc2sc(N3C[C@H]4C[C@@H]3C[C@@H]4OCc3c(-c4c(Cl)cccc4Cl)noc3C3CC3)nc12` (racemic) [Compound 5, 2-((1RS, 4RS, 5SR)-5-((5-cyclopropyl-3-(2,6-dichlorophenyl)isoxazol-4-yl)methoxy)-2-azabicyclo[2.2.1]heptan-2-yl)-4-methylbenzo[d]thiazole-6-carboxylic acid]: the results for the “Residual content (%)” value in series [1] and in series [2] were 49% and 31%, respectively. For the same compound, the “relative expression of BSEP mRNA” value in the series on BSEP mRNA in HepG2 cells (Table 2, 0.3 μM) came to 103%; in the series on BSEP mRNA in HepG2 cells (Table 2, 3 μM) it was 123%.

For the compound `O=C(O)c1ccc2nc(N3[C@@H]4CC[C@H]3C[C@@H](OCc3c(-c5c(Cl)cccc5Cl)noc3C3CC3)C4)sc2c1` [Compound 30-70, reference compound], the “Residual content (%)” value in series [2] came to 20%. For the same compound, the “relative expression of BSEP mRNA” value was 105% with BSEP mRNA in HepG2 cells (Table 1, 0.3 μM) and 146% in the series on BSEP mRNA in HepG2 cells (Table 1, 3 μM).

As for `O=C(O)c1ccc(C2CC2c2ccc(OCc3c(-c4c(Cl)cccc4Cl)noc3C3CC3)cc2Cl)cc1` (centres unmarked) [PX-104, reference compound], the “relative expression of BSEP mRNA” value in the series on BSEP mRNA in HepG2 cells (Table 1, 0.3 μM) is recorded as 60%; in the series on BSEP mRNA in HepG2 cells (Table 1, 3 μM), 100%; in the series on BSEP mRNA in HepG2 cells (Table 2, 0.3 μM), 45%; with BSEP mRNA in HepG2 cells (Table 2, 3 μM) it was 100%.

Consider `O=C(O)c1cc(F)c2nc(N3C[C@H]4C[C@@H]3C[C@@H]4OCc3c(-c4c(Cl)cccc4Cl)noc3C3CC3)sc2c1` (racemic) [Compound 4, 2-((1RS, 4RS, 5SR)-5-((5-cyclopropyl-3-(2,6-dichlorophenyl)isoxazol-4-yl)methoxy)-2-azabicyclo[2.2.1]heptan-2-yl)-4-fluorobenzo[d]thiazole-6-carboxylic acid], for which the “Residual content (%)” value was 69% in series [1] and 54% in series [2]. The “relative expression of BSEP mRNA” value turned out to be 97% with BSEP mRNA in HepG2 cells (Table 2, 0.3 μM) and 96% with BSEP mRNA in HepG2 cells (Table 2, 3 μM).
